Source: patent US20210386695A1 (priority 2020, published 2021)
pEC50: −log10 of the molar value.

Key:
SARS-CoV-2 M^pro = SARS-CoV-2 M^pro (Severe acute respiratory syndrome coronavirus 2, UniProt P0DTD1); assay: FRET based assay of SARS-CoV-2 Mpro protease activity; format: biochemical
SARS-CoV-2 PL^pro = SARS-CoV-2 PL^pro (Severe acute respiratory syndrome coronavirus 2, UniProt P0DTD1); assay: SARS-CoV-2 PLpro protease activity, peptide substrate Z-RLRGG-AMC; format: biochemical
[1] = system: wild type SARS-CoV-2 pseudo-particles; assay: microbe, parasite or virus in culture; format: cell-based; details: Severe acute respiratory syndrome coronavirus 2, Vero C1008
[2] = system: wild type SARS-CoV-2 pseudo-particles; format: cell-based
[3] = system: wild type SARS-CoV-2 pseudo-particles; format: cell-based; remark: listed apart in the source
in vitro = details: African green monkey
[4] = read-out: inhibitory effect on the protease activity of SARS-CoV-2 PL^pro

**Q.** For `CCN(CC)C(=S)SSC(=S)N(CC)CC` [disulfiram], which inhibition at 1 µM (SARS-CoV-2 M^pro) is on record?
**A.** Its inhibition at 1 µM is 16%.

**Q.** What about the inhibition at 5 µM (SARS-CoV-2 M^pro) of the same compound?
**A.** The inhibition at 5 µM was 80.9%.

**Q.** What about the inhibition at 10 µM (SARS-CoV-2 M^pro) of the same compound?
**A.** Its inhibition at 10 µM is 87.1%.

**Q.** What about the “inhibition of protease activity of SARS-CoV-2 M^pro” value (SARS-CoV-2 M^pro; 30 μM disulfiram) of the same compound?
**A.** The value was “full inhibition”.

**Q.** And the “inhibition of protease activity of SARS-CoV-2 M^pro” value (SARS-CoV-2 M^pro; 60 μM disulfiram)?
**A.** The value was “full inhibition”.

**Q.** What about the “inhibitory effect on the protease activity of SARS-CoV-2 PL^pro” value (SARS-CoV-2 PL^pro; 1 μM disulfiram) of the same compound?
**A.** Its value is “does not inhibit”.

**Q.** What about the inhibition at 5 µM (SARS-CoV-2 PL^pro; [4]) of the same compound?
**A.** Its inhibition at 5 µM is 21.7%.

**Q.** And the inhibition at 10 µM (SARS-CoV-2 PL^pro; [4])?
**A.** The inhibition at 10 µM was 36.3%.

**Q.** What about the inhibition at 30 µM (SARS-CoV-2 PL^pro; [4]) of the same compound?
**A.** The inhibition at 30 µM was 77.9%.

**Q.** What about the inhibition at 60 µM (SARS-CoV-2 PL^pro; [4]) of the same compound?
**A.** Its inhibition at 60 µM is 99.9%.

**Q.** What about the pEC50 [1] of the same compound?
**A.** The pEC50 was 5.51.

**Q.** What about the “block of viral pseudo-particles infection” value [2] of the same compound?
**A.** The value was “dose-dependent manner”.

**Q.** And the “inhibitory capacity in furin-expressing Vero E6 cells compared with Vero E6 cells” value [3]?
**A.** The value was “similar”.

**Q.** What about the CC50 (in vitro) of the same compound?
**A.** Its CC50 is 15.7 µM.
